Source: paper PMC12495306 (RSC Medicinal Chemistry, 2025)

Columns and labels:
HEK293 cells = assay: Cell viability / cytotoxicity assay; format: cell-based, human; conditions: CellTiter-Glo, 18 h
ARα2A [1] = biological target: T1, ARα2A (Homo sapiens, UniProt P08913); assay: ARα2A radioligand; format: binding
T1 sequence (P08913 1-465): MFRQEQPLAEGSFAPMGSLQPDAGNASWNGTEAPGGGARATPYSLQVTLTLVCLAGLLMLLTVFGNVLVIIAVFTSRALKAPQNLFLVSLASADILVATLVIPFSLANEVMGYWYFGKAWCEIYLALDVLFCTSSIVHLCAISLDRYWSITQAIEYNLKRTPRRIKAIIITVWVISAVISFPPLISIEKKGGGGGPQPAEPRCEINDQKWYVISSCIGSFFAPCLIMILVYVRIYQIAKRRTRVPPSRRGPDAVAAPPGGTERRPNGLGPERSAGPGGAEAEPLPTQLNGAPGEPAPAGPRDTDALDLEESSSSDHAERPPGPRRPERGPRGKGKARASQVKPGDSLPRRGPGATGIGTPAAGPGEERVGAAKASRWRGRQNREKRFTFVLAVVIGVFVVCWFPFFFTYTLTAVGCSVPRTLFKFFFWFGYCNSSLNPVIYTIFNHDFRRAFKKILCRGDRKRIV

ARα2B [2] = biological target: T2, ARα2B (Homo sapiens, UniProt P18089); assay: ARα2B radioligand; format: binding; conditions: for inhibition at 10 µM: read-out: ARα2B binding (% inhibition at 10 μM)
T2 sequence (P18089 1-450): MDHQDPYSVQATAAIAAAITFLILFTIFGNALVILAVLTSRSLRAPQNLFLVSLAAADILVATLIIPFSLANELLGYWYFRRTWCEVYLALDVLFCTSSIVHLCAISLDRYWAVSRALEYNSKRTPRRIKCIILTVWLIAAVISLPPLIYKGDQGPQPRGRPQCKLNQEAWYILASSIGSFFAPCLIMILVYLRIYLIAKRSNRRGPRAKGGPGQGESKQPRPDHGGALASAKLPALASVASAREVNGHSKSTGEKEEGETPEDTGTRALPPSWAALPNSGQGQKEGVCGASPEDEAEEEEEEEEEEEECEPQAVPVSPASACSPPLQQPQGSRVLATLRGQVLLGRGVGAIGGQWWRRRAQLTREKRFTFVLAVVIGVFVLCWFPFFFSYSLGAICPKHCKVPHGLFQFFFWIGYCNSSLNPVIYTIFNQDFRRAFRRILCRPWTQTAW

ARα2C [3] = biological target: T3, ARα2C (Homo sapiens, UniProt P18825); assay: ARα2C radioligand; format: binding
T3 sequence (P18825 1-462): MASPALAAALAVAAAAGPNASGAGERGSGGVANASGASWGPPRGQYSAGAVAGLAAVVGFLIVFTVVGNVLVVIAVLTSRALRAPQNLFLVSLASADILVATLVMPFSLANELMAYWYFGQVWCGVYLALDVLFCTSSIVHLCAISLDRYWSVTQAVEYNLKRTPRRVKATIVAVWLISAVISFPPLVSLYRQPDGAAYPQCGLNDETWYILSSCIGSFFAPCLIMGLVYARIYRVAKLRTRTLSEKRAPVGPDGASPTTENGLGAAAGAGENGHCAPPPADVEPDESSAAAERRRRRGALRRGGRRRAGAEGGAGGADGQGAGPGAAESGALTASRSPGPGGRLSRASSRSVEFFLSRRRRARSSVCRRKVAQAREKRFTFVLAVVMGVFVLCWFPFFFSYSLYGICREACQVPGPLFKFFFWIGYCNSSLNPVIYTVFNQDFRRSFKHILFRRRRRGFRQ

ARα2A [4] = biological target: T1, ARα2A; assay: GPCR Tango β-arrestin recruitment assay, ARα2A transfected HEK293; format: cell-based; conditions: for activation of ARα2A: agonist mode; for antagonism of ARα2A: in the presence of 300 nM norepinephrine
ARα2B [5] = biological target: T2, ARα2B; format: cell-based; conditions: for activation of ARα2B: agonist mode; for antagonism of ARα2B: in the presence of 300 nM norepinephrine
ARα2C [6] = biological target: T3, ARα2C; assay: GPCR Tango β-arrestin recruitment assay, ARα2C transfected HEK293; format: cell-based; conditions: for activation of ARα2C: agonist mode; for antagonism of ARα2C: in the presence of 300 nM norepinephrine
[7] = system: Female Swiss Webster mice; assay: Rotarod sensorimotor study; format: in vivo; conditions: 40 mg kg−1 oral; measured after 10, 30 and 60 minutes; n = 8
[8] = Pharmacokinetic study, blood and brain; format: in vivo, mice; conditions: 40 mg kg−1 oral
[9] = system: Female Swiss Webster mice; assay: Open field test; format: in vivo; conditions: 40 mg kg−1 oral; 40 min after administration; n = 6
mice [10] = conditions: cited from earlier work
mice [11] = conditions: cited from earlier work; remark: listed apart in the source
[12] = ARα2A binding Ki, competition with 3H-Rauwolscinein, concentration response

Compound	Cytotoxicity LD50 (HEK293 cells)	Ki (ARα2A [1]; [12])	Ki (ARα2B [2])	inhibition at 10 µM (ARα2B [2])	Ki (ARα2C [3])	activation of ARα2A (ARα2A [4])	antagonism of ARα2A (ARα2A [4])	activation of ARα2B (ARα2B [5])	antagonism of ARα2B (ARα2B [5])	activation of ARα2C (ARα2C [6])	antagonism of ARα2C (ARα2C [6])	sensorimotor inhibition on rotarod [7]	sedation (open field test) [9]	further results
CC1N=C(c2ccccc2F)c2cc(Nc3ccccc3)ccc2NC1=O (stereo not drawn) [Compound 2, 7-Anilino-5-(2-fluorophenyl)-3-methyl-1,3-dihydro-2H-1,4-benzodiazepin-2-one]	100 ± 19 µM	3.93 µM	511 nM	90%	1130 nM	did not activate	antagonized	did not activate	antagonized	did not activate	antagonized	did not observe any sensorimotor inhibition	no sedation	Ki (ARα2A [1]; ARα2A Ki, rounded value): 3.9 µM; selectivity for α2B over the α2A subtype (ARα2B [2]; from Ki values): 7.7 fold; selectivity for α2B over the α2C subtype (ARα2B [2]; from Ki values): 2.2 fold; oral availability ([8]; mice): orally available; blood : brain ratios ([8]; 10, 30, 60 min): increased over time; concentration in blood and brain ([8]; as early as 10 min, n = 4): appreciable concentration of 2 in blood and brain that exceeded the affinity of 2 for the target receptor
COc1ccccc1Nc1ccc2c(c1)C(c1ccccc1F)=NC(C)C(=O)N2 (stereo not drawn) [Compound 17, 5-(2-Fluorophenyl)-7-(2-methoxyanilino)-3-methyl-1,3-dihydro-2H-1,4-benzodiazepin-2-one]	148 ± 12 µM	2.05 µM	607 nM	91%	738 nM	did not activate	antagonized	did not activate	antagonized	did not activate	antagonized	did not observe any sensorimotor inhibition	no sedation	
CCC1(c2cnc[nH]2)Cc2ccccc2C1 [atipamezole]														locomotion (OFT) (mice [10]; 1 mg kg−1): did not modulate locomotion
Cc1cccc([C@H](C)c2cnc[nH]2)c1C [dexmedetomidine]														ability of mice to stay on the rotating rod (mice [11]; i.p. doses of higher than 10 μg kg−1): reduced the ability of mice to stay on the rotating rod; activity scores (OFT) (mice [10]; 30 μg kg−1 (s.c.)): significantly reduced the activity scores
Cc1ccc(N(CC2=NCCN2)c2cccc(O)c2)cc1 [phentolamine]														ability of mice to complete a rotarod exercise (mice [11]; 4 mg kg−1 (i.p.)): do not usually alter the ability of mice to complete a rotarod exercise
